The conditions of series [1]: cited from earlier work.
A short description of series [2]: Solubility and storage stability of CPRG. As to conditions: 50 mM K-phosphate buffer containing 1 mM MgCl2, pH 7.5, 4° C. The class given is physicochemical. Here is the method:
CPRG was dissolved in 50 mM K-phosphate buffer containing 1 mM MgCl2. […] When the beta-galactosidase catalzyed hydrolysis of CPRG occurs, the resulting product on the MetPAD™ is purple and, thus, is easily detected visibly.

For series [3], the target named is T1, beta-galactosidase (Escherichia coli, UniProt P00722).
T1 construct: one convenient source of beta-galactosidase is bacteria which produce this enzyme in useful amounts; endogenous in cells; host or cells: E. coli EW1b (Coli Genetic Stock Culture, Yale University), IPTG-induced, freeze-dried in trehalose, rehydrated
T1 sequence (P00722 2-1024): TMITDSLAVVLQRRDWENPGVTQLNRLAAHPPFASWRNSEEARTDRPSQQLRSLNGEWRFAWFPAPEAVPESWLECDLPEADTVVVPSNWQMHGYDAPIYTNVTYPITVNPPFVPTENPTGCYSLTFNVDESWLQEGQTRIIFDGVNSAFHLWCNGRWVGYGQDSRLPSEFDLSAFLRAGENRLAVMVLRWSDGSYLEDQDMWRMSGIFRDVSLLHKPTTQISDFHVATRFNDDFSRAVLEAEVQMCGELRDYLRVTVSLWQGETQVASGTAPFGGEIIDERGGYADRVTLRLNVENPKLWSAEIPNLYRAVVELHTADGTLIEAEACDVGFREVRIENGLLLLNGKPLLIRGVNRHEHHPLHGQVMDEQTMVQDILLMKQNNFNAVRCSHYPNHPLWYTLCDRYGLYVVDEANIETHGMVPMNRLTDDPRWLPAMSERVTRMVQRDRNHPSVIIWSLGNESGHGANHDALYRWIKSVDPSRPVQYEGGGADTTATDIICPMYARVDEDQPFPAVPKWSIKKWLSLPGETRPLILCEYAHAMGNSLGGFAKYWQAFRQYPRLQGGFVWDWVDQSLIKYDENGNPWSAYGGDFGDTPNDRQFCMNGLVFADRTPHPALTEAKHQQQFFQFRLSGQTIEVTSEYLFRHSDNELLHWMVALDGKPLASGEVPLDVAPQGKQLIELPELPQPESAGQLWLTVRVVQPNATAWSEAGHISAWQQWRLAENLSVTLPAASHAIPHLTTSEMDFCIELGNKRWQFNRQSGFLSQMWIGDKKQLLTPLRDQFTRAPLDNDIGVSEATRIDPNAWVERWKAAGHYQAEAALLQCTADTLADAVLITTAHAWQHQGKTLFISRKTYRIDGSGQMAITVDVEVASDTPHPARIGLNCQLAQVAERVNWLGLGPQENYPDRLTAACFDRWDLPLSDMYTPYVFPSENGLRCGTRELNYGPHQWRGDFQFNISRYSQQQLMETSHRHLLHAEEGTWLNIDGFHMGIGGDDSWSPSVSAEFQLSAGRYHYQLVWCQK
The class given is biochemical, E. coli EW1b.

Series [4] has as its system beta-galactosidase of E. coli EW1b. The class given is biochemical. As to conditions: for Color intensity, trehalose medium: freeze-dried in trehalose medium (22.4% w/v); for Color intensity, distilled water: freeze-dried in distilled water.
The target of series [5] is T1, beta-galactosidase. The series is classed as biochemical, E. coli EW1b. This is another data set of the same source.
The target of series [6] is T1, beta-galactosidase. The series is classed as biochemical, E. coli EW1b. Further details: key: +++++: maximum color intensity; -: complete enzyme inactivation.
The next series relates to E. coli EW1b cells. The experiment in a line: Enhancement of beta-galactosidase production by inducer. The class given is cell-based. As to conditions: E. coli EW1b cells treated with inducer. An excerpt: As described above, one convenient source of beta-galactosidase is bacteria which produce this enzyme in useful amounts. Advantageously, the enzyme produced by the bacteria is readily accessible to the heavy metal and the substrate. […] Among the bacteria investigated by the applicants are E. coli C3000, E. coli EW1b, and a mixed culture of beta-galactosidase producers isolated from wastewater. E. coli C3000 is available from the American Type Culture Collection (ATCC), 12301 Parklawn Drive, Rockville, Md. 20852 USA. The culture has been assigned the accession number ATCC 15597 by the repository. E. coli EW1b is available from the Coli Genetic Stock Culture, Yale University, New Haven, Conn. The mixed culture was obtained following inoculation of LB-lactose-SDS broth with activated sludge effluent. Although these bacteria would perform well in the assay of the subject invention, E. coli C3000 was not as sensitive to heavy metal toxicity as E. coli EW1b or the mixture of beta-galactosidase producing bacteria. Moreover, due to potential problems in maintaining a mixed culture of bacteria, E. coli EW1b is the preferred microbe. […]
3. […] The bacterial suspension is then diluted with 20 ml of fresh medium, amended with 1 ml of 0.2% (w/v) solution of isopropyl-beta-thiogalactoside (IPTG) and then allowed to grow to absorbance A550 =0.4-0.5.

The nature of series [7]: Stability of beta-galactosidase in freeze-dried cells. The series is classed as physicochemical, E. coli EW1b. How it is done: A. Preparation of freeze-dried cells
1. Stock cultures of E. coli EW1b are stored in 40% glycerol solution at -14° C. to -20° C.
2. Fifty μL of the stock culture are inoculated into 5 ml of LB-lactose medium (Bacto-tryptone: 1%; yeast extract: 0.5%; NaCl: 1.0%; K2 HPO4 : 0.15%; Lactose: 1%).
3. Cells are grown overnight at 35° C. The bacterial suspension is then diluted with 20 ml of fresh medium, amended with 1 ml of 0.2% (w/v) solution of isopropyl-beta-thiogalactoside (IPTG) and then allowed to grow to absorbance A550 =0.4-0.5.
4. Cells are centrifuged at 8000 RPM for 10 minutes.
5. The pellet is resuspended in distilled water.
6. The suspension is centrifuged for 10 minutes at 8000 RPM.
7. The suspension is resuspended in 2% trehalose to obtain an absorbance of A550 =0.2-0.25 (if using the MUGA pads for enzyme assay, an absorbance of A550 =0.10 is sufficient).
8. This suspension is dispensed in 3 ml aliquots in serum bottles.
9. The cells are frozen overnight at -40° C.
10. The frozen cells are freeze-dried for 24 hours and stored at subzero or at refrigerator temperature until used. […] Moreover, the enzyme was stable for at least 18 hours at 35° C.

[8] abbreviates: 400 ppm, maximum concentration tested at which no inhibition was observed.

The text below walks through data of US5633144A, “Assay pad and method for determination of the presence of total coliforms” (priority 1994, dated 1997).

Read-outs that look alike come from different tables or passages of the source.

With `O=S1(=O)OC(c2ccc(O)c(Cl)c2)(c2ccc(O[C@@H]3O[C@H](CO)[C@H](O)[C@H](O)[C@H]3O)c(Cl)c2)c2ccccc21` (stereo partly drawn) [CPRG, chlorophenol red-beta-D-galactopyranoside], the solubility result in series [1] is on record as “more than 50 mmol/L”. Also, the stability entry in series [1] (must be protected from light) is “stable at -20 °C”. In addition, the “stability of CPRG solution” value in series [2] is “stable at 4 °C for one week”.

Consider `O=S(=O)([O-])[O-].[Cd+2]` [Cadmium (CdSO4), Cadmium], for which, at beta-galactosidase [3] (MetPAD), the “MIC (Minimum Inhibitory Concentration)” value stood at 0.2 mg/L and the “Total inactivation (toxicant concentration which causes 100% inhibition of enzyme activity)” value is listed as 1.0 mg/L. Besides, the “heavy metal toxicity, response of MetPAD (in words)” value on beta-galactosidase [3] (MetPAD, 7 heavy metals) is “most toxic among the metals tested”. The “Color intensity, trehalose medium” value in series [4] (1.0 ppm) is recorded as “-”. Besides, the “Color intensity, trehalose medium” value in series [4] (1.5 ppm) is on record as “-”. For the same compound, the “Minimum inhibitory concentration (MIC), CPRG pads” value at beta-galactosidase [5] (CPRG pads) was 0.30 mg/L. Also, at beta-galactosidase [5] (Fluorescent (MUGA) pads), the “Minimum inhibitory concentration (MIC), fluorescent pads” value is 0.30 mg/L.

Turning to `ClC(Cl)Cl` [Chloroform], the Color intensity result on beta-galactosidase [6] (3250 ppm) is on record as “+++++”.

For `O.O.O.O.O.O=S(=O)([O-])[O-].[Cu+2]` [Copper (CuSO4.5H2 O), Copper], at beta-galactosidase [3] (MetPAD), the “MIC (Minimum Inhibitory Concentration)” value was 0.5 mg/L. The “Total inactivation (toxicant concentration which causes 100% inhibition of enzyme activity)” value on beta-galactosidase [3] (MetPAD) was 1.0 mg/L. In addition, the “Color intensity, distilled water” value in series [4] (0.5 ppm), in series [4] (0.8 ppm), in series [4] (1.0 ppm) and in series [4] (1.5 ppm) was “+++++” throughout. In addition, the “Color intensity, trehalose medium” value in series [4] (1.0 ppm) and in series [4] (1.5 ppm) was “-” each time. Also, the “Minimum inhibitory concentration (MIC), CPRG pads” value on beta-galactosidase [5] (CPRG pads) is reported as 0.50 mg/L. On beta-galactosidase [5] (Fluorescent (MUGA) pads), the “Minimum inhibitory concentration (MIC), fluorescent pads” value turned out to be 0.25 mg/L.

With `C=O` [Formaldehyde], on beta-galactosidase [6] (925 ppm, buffered to pH = 7.0 with K-phosphate buffer), the Color intensity entry is “+++++”.

On to `CC(C)S[C@@H]1O[C@H](CO)[C@H](O)[C@H](O)[C@H]1O` [IPTG, isopropyl-beta-thiogalactoside], for which the beta-galactosidase production entry in the series with E. coli EW1b cells is on record as “beta-galactosidase production could be enhanced”.

For the compound `O=[N+]([O-])[O-].O=[N+]([O-])[O-].[Pb+2]` [Lead (Pb(NO3)2), Lead], the “MIC (Minimum Inhibitory Concentration)” value at beta-galactosidase [3] (MetPAD) is on record as 5.0 mg/L. Further, the “Total inactivation (toxicant concentration which causes 100% inhibition of enzyme activity)” value at beta-galactosidase [3] (MetPAD) stood at 15.0 mg/L. For the same compound, the “Color intensity, trehalose medium” value was “+++++” in series [4] (3.0 ppm), “-” in series [4] (15.0 ppm) and “-” in series [4] (20.0 ppm). Further, the “Minimum inhibitory concentration (MIC), CPRG pads” value on beta-galactosidase [5] (CPRG pads) is given as 5.00 mg/L. Further, the “Minimum inhibitory concentration (MIC), fluorescent pads” value on beta-galactosidase [5] (Fluorescent (MUGA) pads) was 2.50 mg/L.

With `Cl[C@H]1[C@H](Cl)[C@@H](Cl)[C@@H](Cl)[C@H](Cl)[C@H]1Cl` [Lindane], at beta-galactosidase [6] (500 ppm), the Color intensity entry is “+++++”.

For the compound `O.O.O.O.O.O.O=S(=O)([O-])[O-].[Ni+2]` [Ni (NiSO4.6H2 O), Nickel], at beta-galactosidase [3] (MetPAD), the “MIC (Minimum Inhibitory Concentration)” value was found to be 8.0 mg/L and the “Total inactivation (toxicant concentration which causes 100% inhibition of enzyme activity)” value was found to be 20.0 mg/L. Also, the “Minimum inhibitory concentration (MIC), CPRG pads” value on beta-galactosidase [5] (CPRG pads) is reported as 8.00 mg/L. Besides, at beta-galactosidase [5] (Fluorescent (MUGA) pads), the “Minimum inhibitory concentration (MIC), fluorescent pads” value is on record as 5.00 mg/L.

For `Oc1c(Cl)c(Cl)c(Cl)c(Cl)c1Cl` [Pentachlorophenol], on beta-galactosidase [6] (setting [8]), the Color intensity entry is “+++++”.

Take `Oc1ccccc1` [Phenol]: on beta-galactosidase [6] (3000 ppm), the Color intensity result is listed as “+++++”.

On to `CCCCCCCCCCCCOS(=O)(=O)[O-].[Na+]` [Sodium dodecyl sulfate], for which the Color intensity result on beta-galactosidase [6] (3000 ppm) is listed as “+++++”.

Take `Cn1cc(-c2ccccc2)c(=O)c(-c2cccc(C(F)(F)F)c2)c1` [Sonar (Fluoridone), Fluoridone]: the Color intensity result at beta-galactosidase [6] (setting [8]) was “+++++”.

As for `O=S(=O)([O-])[O-].[Zn+2]` [Zinc (ZnSO4), Zinc], the “MIC (Minimum Inhibitory Concentration)” value at beta-galactosidase [3] (MetPAD) lay within 0.5 to 1 mg/L. In addition, the “Total inactivation (toxicant concentration which causes 100% inhibition of enzyme activity)” value at beta-galactosidase [3] (MetPAD) is 3.0 mg/L. Besides, the “Color intensity, distilled water” value in series [4] (0.5 ppm) is listed as “+++++”; in series [4] (1.0 ppm), “+++++”; in series [4] (10.0 ppm), “-”. The “Color intensity, trehalose medium” value is “+++++” in series [4] (0.5 ppm); “-” in series [4] (3.0 ppm); “-” in series [4] (5.0 ppm); “-” in series [4] (7.5 ppm); “-” in series [4] (10.0 ppm). In addition, the “Minimum inhibitory concentration (MIC), CPRG pads” value at beta-galactosidase [5] (CPRG pads) fell in the range of 0.5 to 1.00 mg/L. At beta-galactosidase [5] (Fluorescent (MUGA) pads), the “Minimum inhibitory concentration (MIC), fluorescent pads” value is listed as 0.50 mg/L.

For `O=[N+]([O-])c1ccc(O)cc1` [p-nitrophenol], the Color intensity result at beta-galactosidase [6] (110 ppm) is given as “+++++”.

For Chromium [Cr (K2 Cr2 O7)], at beta-galactosidase [3], the “MIC (Minimum Inhibitory Concentration)” value was 25.0 mg/L and the “Total inactivation (toxicant concentration which causes 100% inhibition of enzyme activity)” value was found to be 50.0 mg/L. Moreover, on beta-galactosidase [5], the “Minimum inhibitory concentration (MIC), CPRG pads” value is 25.00 mg/L and the “Minimum inhibitory concentration (MIC), fluorescent pads” value is listed as 25.00 mg/L.

Consider Mercury [Mercury (HgSO4)], for which, on beta-galactosidase [3] (MetPAD), the “MIC (Minimum Inhibitory Concentration)” value is on record as 0.5 mg/L. The “Total inactivation (toxicant concentration which causes 100% inhibition of enzyme activity)” value on beta-galactosidase [3] (MetPAD) is recorded as 1.0 mg/L. The “Color intensity, distilled water” value in series [4] (0.5 ppm), in series [4] (1.0 ppm) and in series [4] (1.5 ppm) was “+++++” each time. For the same compound, the “Color intensity, trehalose medium” value in series [4] (1.0 ppm), in series [4] (1.5 ppm) and in series [4] (2.0 ppm) was “-” throughout. The “Minimum inhibitory concentration (MIC), CPRG pads” value on beta-galactosidase [5] (CPRG pads) was found to be 0.25 mg/L. The “Minimum inhibitory concentration (MIC), fluorescent pads” value at beta-galactosidase [5] (Fluorescent (MUGA) pads) was found to be 0.25 mg/L.

In the case of “beta-galactosidase: enzyme of freeze-dried E. coli EW1b cells”, the “stability of beta-galactosidase activity of freeze-dried cells” value in series [7] (4° C.) is “stable for several weeks”. In series [7] (35° C.), the “stability of the enzyme” value is “at least 18 hours”.
